Converted amounts (≈) assume the structure as drawn. Read-outs that look alike come from different tables or passages of the source.
Tests used:
Solubility = conditions: descriptive term
[1] = target: cytochrome P450 (CYP) 3A4 isoenzyme (Homo sapiens, UniProt P08684)
Text: These are present as free metabolites and as sulfate and glucuronide conjugates.

[2] = Residual amount of drug in vaginal systems used in clinical trials over 13 product-use cycles; format: in vivo, human; conditions: based on residual drug in used systems
Procedure: Although the vaginal system provides SA and EE in the approximate rates described above, SA and EE can diffuse out of the vaginal system with release rates that vary over time. In certain embodiments, the daily in vitro release rates of SA and EE are higher during each initial 24-48 hours of use in a given product-use cycle, achieving a somewhat lower steady-state with continued use over subsequent days in each product-use cycle. Based on the residual amount of drug in vaginal systems used in clinical trials over 13 product-use cycles, a total of approximately 41.3 mg of SA and approximately 3.4 mg of EE are released over this period.

[3] = co-administration of atorvastatin or rosuvastatin and certain CHCs containing EE; cited from earlier work
[4] = Drug-drug interaction study with vaginal miconazole formulations; format: in vivo, human; conditions: for overall increase in exposure: concurrent 1 day or 3-day oil-based miconazole suppository; for change in exposure from the vaginal system: concurrent water-based vaginal miconazole cream
Text: However, the use of either the 1 day or the 3-day oil-based miconazole suppository was associated with an overall increase in exposure up to 67% for EE and 32% for SA. Considering the potential long-term effect on vaginal system performance, concurrent use of oil-based vaginal suppositories should not occur with the system's use. If there is a need to treat a vaginal condition, water-based vaginal cream or oral therapy may be used concurrently with the vaginal system.

serum albumin = serum albumin (Homo sapiens, UniProt P02768); assay: Serum albumin binding; format: in vitro ADME; conditions: not specifically bound
serum albumin, sequence (P02768 25-609): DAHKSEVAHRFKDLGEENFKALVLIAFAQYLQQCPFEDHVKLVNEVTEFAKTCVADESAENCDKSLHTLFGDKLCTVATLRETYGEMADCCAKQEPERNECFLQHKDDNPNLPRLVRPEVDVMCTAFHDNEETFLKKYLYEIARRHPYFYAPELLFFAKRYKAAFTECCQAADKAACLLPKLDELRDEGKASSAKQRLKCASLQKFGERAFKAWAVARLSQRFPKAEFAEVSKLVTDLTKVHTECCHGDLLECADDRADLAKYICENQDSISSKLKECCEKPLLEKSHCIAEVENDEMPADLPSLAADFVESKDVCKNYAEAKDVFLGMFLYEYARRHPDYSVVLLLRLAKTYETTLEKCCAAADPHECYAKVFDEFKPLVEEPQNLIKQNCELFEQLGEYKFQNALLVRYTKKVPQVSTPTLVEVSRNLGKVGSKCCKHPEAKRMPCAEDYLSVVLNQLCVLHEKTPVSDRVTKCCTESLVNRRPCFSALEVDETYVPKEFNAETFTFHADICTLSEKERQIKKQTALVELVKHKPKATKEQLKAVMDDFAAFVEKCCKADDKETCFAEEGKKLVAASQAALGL

[5] = Pharmacokinetics of the vaginal system in 39 women over up to 13 product-use cycles; format: in vivo, human; set-up: AUC(0-t) / AUC0-21day / AUC0-1day: concentration or dose not given beside the values; conditions: vaginal administration; for AUC0-1day / AUC0-21day / Cavg / Cmax / AUC(0-t): mean (SD)
Procedure: The pharmacokinetics (PK) of the vaginal system described herein were determined in 39 women who used the system for up to 13 product-use cycles. […] Over subsequent product-use cycles, the peak serum concentrations of SA and EE declined. Serum concentration-time profiles of SA and EE for product-pse cycles 1, 3, and 13 of system use are provided in FIG. 1 and FIG. 2 with PK parameters summarized in Table 3 and Table 4.

[6] = in vivo
human serum proteins = assay: Serum protein binding; format: in vitro ADME
QTc interval = assay: Phase 1 thorough QTc study; format: in vivo, human; conditions: single intravenous bolus dose giving 4.5-fold the therapeutic serum concentrations; 44 healthy adult female subjects
Procedure: The effect of SA on the QTc interval was evaluated in a Phase 1 randomized, placebo and positive controlled, double-blind, single-dose, three-period, crossover thorough QTc study in 44 healthy adult female subjects.

CYP enzymes = assay: In vitro CYP inhibition/induction studies; format: in vitro ADME; conditions: at the therapeutic dose
mouse = assay: In vivo mouse micronucleus test
[7] = target: T1, sex hormone-binding globulin (SHBG) (Homo sapiens, UniProt P04278); assay: Binding affinity for SHBG
T1 sequence (P04278 30-402): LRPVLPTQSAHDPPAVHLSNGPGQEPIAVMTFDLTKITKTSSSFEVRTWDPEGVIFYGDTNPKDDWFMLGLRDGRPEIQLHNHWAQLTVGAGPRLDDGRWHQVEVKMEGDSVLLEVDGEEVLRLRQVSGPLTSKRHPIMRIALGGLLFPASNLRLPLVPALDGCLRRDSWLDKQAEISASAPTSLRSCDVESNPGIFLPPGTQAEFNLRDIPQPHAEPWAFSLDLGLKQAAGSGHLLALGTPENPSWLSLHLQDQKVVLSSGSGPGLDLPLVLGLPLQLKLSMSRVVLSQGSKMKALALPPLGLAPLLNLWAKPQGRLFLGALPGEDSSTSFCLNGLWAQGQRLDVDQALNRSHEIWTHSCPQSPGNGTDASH

rats [8] = assay: 2-year carcinogenicity study in rats with subdermal implants; format: in vivo, rat; conditions: subdermal implants releasing 40, 100, and 200 μg per day, 2 years
Text: (§1) Long-term continuous administration of natural and synthetic estrogens in certain animal species increases the frequency of carcinomas of the breast, uterus, cervix, vagina, testis, and liver.

rats [9] = assay: Return to fertility study in rats with subdermal implants; format: in vivo, rat
Procedure: A return to fertility study was conducted with segesterone acetate in rats, using subdermal implants releasing a dose approximately 25 times the anticipated daily vaginal human dose (based on body surface area).

mice = assay: 2-year intravaginal carcinogenicity study in mice; format: in vivo, mouse; conditions: intravaginal gel, 2 years
Text: as §1

[10] = system: Chinese hamster ovary cells; assay: Chromosomal aberration assay; format: cell-based
physchem = conditions: water
Salmonella = assay: Ames/Salmonella reverse mutation assay; format: cell-based
clinical = conditions: human, in vivo

cytochrome P450 (CYP) 3A4 isoenzyme, sequence (P08684 whole entry): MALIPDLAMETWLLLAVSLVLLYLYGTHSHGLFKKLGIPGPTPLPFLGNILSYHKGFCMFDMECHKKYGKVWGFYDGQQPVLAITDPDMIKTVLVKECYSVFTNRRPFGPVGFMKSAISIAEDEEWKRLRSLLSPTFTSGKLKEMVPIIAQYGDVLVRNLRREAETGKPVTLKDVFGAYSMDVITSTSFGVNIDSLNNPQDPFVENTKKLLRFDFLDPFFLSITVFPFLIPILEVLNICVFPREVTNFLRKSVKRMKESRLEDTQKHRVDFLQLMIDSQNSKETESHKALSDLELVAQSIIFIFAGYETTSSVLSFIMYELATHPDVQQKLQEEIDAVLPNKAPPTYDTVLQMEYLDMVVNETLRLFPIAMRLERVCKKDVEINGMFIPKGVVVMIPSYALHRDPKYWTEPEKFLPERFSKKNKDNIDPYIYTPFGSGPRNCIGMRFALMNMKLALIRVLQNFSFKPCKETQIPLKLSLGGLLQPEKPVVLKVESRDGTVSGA

In the case of C#C[C@]1(O)CC[C@H]2[C@@H]3CCc4cc(O)ccc4[C@H]3CC[C@@]21C [EE, 19-nor-17α-pregna-1,3,5(10)-trien-20-yne-3,17-diol], the “solubility in alkaline solution” value (Solubility) is reported as “dissolves”, the metabolizing enzyme [1] is reported as “metabolized by the cytochrome P450 (CYP) 3A4 isoenzyme” and the total amount released [2] is reported as “approximately 3.4 mg”. For the same compound, the “increase in systemic exposure of EE” value [3] was 20-25%, the “overall increase in exposure” value [4] was “up to 67%” and the “change in exposure from the vaginal system” value [4] was “no change”. The “bound to serum albumin” value (serum albumin) was 98.5%, the AUC0-1day ([5]; Cycle 1, serum) was 2.1 (0.7) ng * hr/mL and the AUC0-21day ([5]; Cycle 1, serum) was 22.2 (9.8) ng * hr/mL. The Cavg ([5]; Cycle 1, serum) was 44 (19) pg/mL, the Cmax ([5]; Cycle 1, serum) was 129 (39) pg/mL and the AUC0-1day ([5]; Cycle 3, serum) was 0.9 (0.4) ng * hr/mL. For the same compound, the AUC0-21day ([5]; Cycle 3, serum) was 14.7 (4.7) ng * hr/mL, the Cavg ([5]; Cycle 3, serum) was 29 (9) pg/mL and the Cmax ([5]; Cycle 3, serum) was 60 (32) pg/mL. The AUC0-1day ([5]; Cycle 13, serum) was 0.7 (0.3) ng * hr/mL, the AUC0-21day ([5]; Cycle 13, serum) was 9.6 (4.1) ng * hr/mL and the Cavg ([5]; Cycle 13, serum) was 19 (8) pg/mL. The Cmax ([5]; Cycle 13, serum) was 39 (16) pg/mL, the “median Tmax” value ([5]; product-use cycle 1, 3 and 13) was “about 2 hours” and the half-life ([6]; human) was 15.1 (7.5) hours. The “effect on serum concentrations of SHBG” value [6] was “induces an increase”.
With C=C1C[C@H]2[C@@H]3CCC4=CC(=O)CC[C@@H]4[C@H]3CC[C@]2(C)[C@@]1(OC(C)=O)C(C)=O [SA, 16-methylene-17α-acetoxy-19-nor-pregn-4-ene-3,20-dione] the “bound to human serum proteins” value (human serum proteins) was “approximately 95%”, the metabolizing enzyme ([1]; human) was “metabolized by the cytochrome P450 (CYP) 3A4 isoenzyme” and the total amount released [2] was “approximately 41.3 mg”. For the same compound, the “effect on the QTc interval” value (QTc interval) was “did not prolong the QTc interval to any clinically relevant extent”, the “inhibition or induction of CYP enzymes” value (CYP enzymes) was “unlikely to inhibit or induce CYP enzymes” and the micronucleus test result (mouse) was “neither mutagenic nor elastogenic”. The “binding affinity for sex hormone-binding globulin (SHBG)” value [7] was “negligible”, the tumor incidence (rats [8]) was “no drug-related increase in tumor incidence” and the “effects on ovulation or litter parameters after treatment” value (rats [9]; 7 weeks after cessation of treatment) was “no adverse effects on ovulation or resulting litter parameters”. For the same compound, the effect on fertility (rats [9]; subdermal implants, three months of treatment, approximately 25 times the human dose) was “suppressed fertility”, the “overall increase in exposure” value [4] was ≤ 32% and the “change in exposure from the vaginal system” value [4] was “no change”. For the same compound, the carcinogenic findings (mice; 10 mg/kg/day) was “did not result in carcinogenic findings”, the carcinogenic findings (mice; 30 mg/kg/day) was “increased incidence of adenocarcinoma and lobular hyperplasia in the breast” and the chromosomal aberration [10] was “neither mutagenic nor elastogenic”. For the same compound, the solubility (physchem) was 18.5 µg/mL (≈ 49.9 µM), the Cavg ([5]; Cycle 1, serum) was 191 (34) pg/mL and the Cavg ([5]; Cycle 3, serum) was 131 (29) pg/mL. The Cavg ([5]; Cycle 13, serum) was 94 (20) pg/mL, the AUC(0-t) ([5]; female, human, serum, Cycle 1, serum, read-out: AUC0-1day) was 15 ng·h/mL and the AUC(0-t) ([5]; female, human, serum, Cycle 1, serum, read-out: AUC0-21day) was 96.2 ng·h/mL. For the same compound, the Cmax ([5]; female, human, serum, Cycle 1, serum, read-out: Cmax) was 1.15 ng/mL, the AUC(0-t) ([5]; female, human, serum, Cycle 3, serum, read-out: AUC0-1day) was 5 ng·h/mL and the AUC(0-t) ([5]; female, human, serum, Cycle 3, serum, read-out: AUC0-21day) was 65.9 ng·h/mL. For the same compound, the Cmax ([5]; female, human, serum, Cycle 3, serum, read-out: Cmax) was 0.363 ng/mL, the AUC(0-t) ([5]; female, human, serum, Cycle 13, serum, read-out: AUC0-1day) was 3.9 ng·h/mL and the AUC(0-t) ([5]; female, human, serum, Cycle 13, serum, read-out: AUC0-21day) was 47.2 ng·h/mL. For the same compound, the Cmax ([5]; female, human, serum, Cycle 13, serum, read-out: Cmax) was 0.294 ng/mL, the Tmax ([5]; female, human, serum, product-use cycle 1, 3 and 13, read-out: median Tmax) was ~2 h and the mutagenicity (Salmonella) was “neither mutagenic nor elastogenic”. The Vd (clinical) was 19.6 L/kg and the half-life (clinical) was 4.5 h.

Source: US10780047B2, “Method of providing birth control” (The Population Council, Inc., priority 2019, dated 2020)
